Reference: US20130324526A1, “[1,2,4] TRIAZOLO [4,3-B] PYRIDAZINE COMPOUNDS AS INHIBITORS OF THE C-MET TYROSINE KINASE” (NOVARTIS AG, priority 2011, published 2013)

Columns and labels:
human platelet PDE3 = molecular target: T1, human platelet PDE3 (Homo sapiens, UniProt Q14432); assay: hPDE3 assay ([3H]cAMP scintillation proximity assay); assay type: biochemical; settings: human platelet PDE3, [3H]cAMP SPA, 30 min at room temperature
T1 construct: Human platelet PDE3 (partially purified from human platelets); from tissue; host or cells: human platelets
T1 sequence (Q14432 whole entry): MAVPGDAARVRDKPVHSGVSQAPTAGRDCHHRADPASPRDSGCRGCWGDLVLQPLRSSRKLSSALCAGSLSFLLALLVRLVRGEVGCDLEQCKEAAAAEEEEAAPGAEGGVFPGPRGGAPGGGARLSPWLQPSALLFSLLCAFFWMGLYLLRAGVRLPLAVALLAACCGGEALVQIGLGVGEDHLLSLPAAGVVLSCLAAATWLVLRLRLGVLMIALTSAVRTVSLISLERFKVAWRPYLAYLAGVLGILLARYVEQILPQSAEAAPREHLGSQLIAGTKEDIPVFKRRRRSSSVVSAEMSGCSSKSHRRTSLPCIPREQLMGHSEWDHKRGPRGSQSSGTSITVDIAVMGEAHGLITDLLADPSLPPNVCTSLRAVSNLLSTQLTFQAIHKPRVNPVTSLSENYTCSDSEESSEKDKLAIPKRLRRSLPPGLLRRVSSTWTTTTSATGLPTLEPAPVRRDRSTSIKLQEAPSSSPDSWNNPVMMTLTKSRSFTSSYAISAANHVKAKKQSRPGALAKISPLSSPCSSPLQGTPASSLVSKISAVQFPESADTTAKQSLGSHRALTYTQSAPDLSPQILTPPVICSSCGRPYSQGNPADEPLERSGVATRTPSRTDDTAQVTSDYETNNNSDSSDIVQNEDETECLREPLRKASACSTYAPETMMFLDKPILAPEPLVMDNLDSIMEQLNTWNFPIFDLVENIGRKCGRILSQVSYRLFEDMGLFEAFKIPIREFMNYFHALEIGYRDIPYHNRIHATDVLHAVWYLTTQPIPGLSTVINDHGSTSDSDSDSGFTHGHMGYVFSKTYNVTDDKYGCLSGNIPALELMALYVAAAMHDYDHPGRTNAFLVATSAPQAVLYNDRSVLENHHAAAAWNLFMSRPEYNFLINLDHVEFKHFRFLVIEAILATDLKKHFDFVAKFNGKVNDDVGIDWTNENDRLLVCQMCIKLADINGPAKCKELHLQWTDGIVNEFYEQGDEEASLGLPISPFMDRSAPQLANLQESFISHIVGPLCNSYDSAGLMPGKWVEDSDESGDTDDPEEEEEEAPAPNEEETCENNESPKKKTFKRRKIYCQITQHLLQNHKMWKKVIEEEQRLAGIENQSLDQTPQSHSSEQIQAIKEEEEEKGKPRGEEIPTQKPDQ

GTL16 cells = assay: GTL16 cell viability assay (CellTiter Glo); assay type: cell-based; settings: Homo sapiens, GTL 16, GTL16 gastric cancer cells, 24 hours, triplicates, read-out: GTL-16 Proliferation IC50
Experimental: GTL16 cell line is derived from a gastric cancer patient. GTL16 expresses high level of c-Met receptor tyrosine kinase due to the gene amplification.
GTL16 cells were seeded in DMEM medium with 10% FBS and 1% Pene. & Strep. at 5000 cells/well/90 μL in 96 well plate and incubated overnight for attachment at 37° C. in 5% CO2 incubator. 10-fold serials dilutions of compounds were added to the cell as 10 μL/well. The final assay volume was 100 μl/well. The assay plates were incubated at 37° C. in 5% CO2 incubator for 24 hours. […] Briefly, the plates were cooled at room temperature for 10 mins and 100 μl of CellTiter Glo reagent was added into each well. Plates were shaken for 10 mins. The chemiluminescent light unit was read in Envision from Perkin Elmer. All the tests were run at triplicates. The IC50 was calculated using Spotfire software.

[1] = molecular target: c-MET receptor tyrosine kinase, GST-c-MET(969-1390) (Homo sapiens, UniProt P08581); assay: EPK c-MET profiling assay (LanthaScreen TR-FRET kinase assay); assay type: biochemical; settings: 2 μM ATP, 0.3 nM enzyme, 60 minutes at room temperature; end point measurement, repeats can be about two times higher or lower; read-out: c-Met Biochem IC50
Sequence of c-MET receptor tyrosine kinase, GST-c-MET(969-1390) (P08581 969-1390): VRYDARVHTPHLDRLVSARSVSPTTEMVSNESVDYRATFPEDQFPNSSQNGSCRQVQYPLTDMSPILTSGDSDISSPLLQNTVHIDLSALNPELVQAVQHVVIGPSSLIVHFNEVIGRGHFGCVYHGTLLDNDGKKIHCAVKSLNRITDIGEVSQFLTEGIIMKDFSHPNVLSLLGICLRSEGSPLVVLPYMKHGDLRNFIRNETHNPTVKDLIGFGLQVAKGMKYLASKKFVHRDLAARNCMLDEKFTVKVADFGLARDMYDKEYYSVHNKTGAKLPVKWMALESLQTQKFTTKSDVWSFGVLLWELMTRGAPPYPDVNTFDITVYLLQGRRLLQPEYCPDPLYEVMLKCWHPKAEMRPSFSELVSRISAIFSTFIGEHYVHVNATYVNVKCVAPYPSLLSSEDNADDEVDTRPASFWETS
Experimental: The exemplified compounds of the present invention were assayed in an antibody based kinase phosphorylation assay as follows.
EPK c-MET Profiling Assay:
The EPK kinase assay for c-MET receptor tyrosine kinase was developed, using the purified recombinant GST-fusion protein, containing the cytoplasmic domain of the enzyme. GST-c-MET(969-1390) was purified by affinity chromatography.
The kinase assay is based on the LanthaScreen™ technology. LanthaScreen™ is the detection of Time-Resolved Fluorescence Resonance Energy Transfer (TR-FRET) using lanthanide chelates to measure interactions between various binding partners. In a TR-FRET kinase assay, a long-lifetime lanthanide donor species is conjugated to an antibody that specifically binds to a phosphorylated product of a kinase reaction that is labeled with a suitable acceptor fluorophore. This antibody-mediated interaction brings the lanthanide donor and the acceptor into proximity such that resonance energy transfer can take place, resulting in a detectable increase in the FRET signal.
The kinase reactions were performed in 384 well microtiter plates in a total reaction volume of 10.05 μL. The assay plates were prepared with 0.05 μL per well of test compound in the appropriate test concentration, as described under “preparation of compound dilutions”. The reactions were started by combining 5 μL of ATP solution with 5 μL of enzyme-substrate mix (consisting of kinase and substrate). The final concentrations in the kinase reactions were 25 mM Tris/HCl, 1 mM DTT, 0.025% Tween20, 10 μM sodium orthovanadate, 0.25% BSA, 0.5% DMSO, 10 mM MgCl2, 3 mM MnCl2, 2 μM ATP, 50 nM Fluorescein-PolyEAY, and 0.3 nM enzyme. The reactions were incubated for 60 minutes at room temperature and stopped by adding 5 μL of stop buffer (50 mM EDTA, 0.04% NP40, 20 mM Tris/HCl). Subsequently 5 μL of detection mix (50 mM Tris/HCl, 2 mM DTT, 0.05% Tween20, 20 μM sodium orthovanadate, 1% BSA, 1 nM Tb-PY20 antibody) were added to the stopped reactions. After 45 minutes incubation in dark at room temperature, the plates were measured in a Perkinelmer Envision fluorescence reader. The effect of compound on the enzymatic activity was in all assays obtained from the linear progress curves and normally determined from one reading (end point measurement).
These endpoint results should therefore only be seen as an indicator for the activity range, since repeated measurements can result in about two times higher or lower values.

With `C/C(=N\OCCO)c1ccc2nnc(Cc3c(F)cc4ncc(C5CCCCC5)cc4c3F)n2n1` [Example 25, (E)-1-(3-((3-Cyclohexyl-5,7-difluoroquinolin-6-yl)methyl)-[1,2,4]triazolo[4,3-b]pyridazin-6-yl)ethanone O-2-hydroxyethyl oxime] as the compound, how does the IC50 (human platelet PDE3) read?
Its IC50 is 3 µM.

And the IC50 (GTL16 cells)?
Its IC50 is 0.012 µM.

What about the IC50 [1] of the same compound?
Its IC50 is 0.016 µM.

Which IC50 (human platelet PDE3) does the source give for `C/C(=N\O)c1ccc2nnc([C@H](C)c3c(F)cc4ncc(-c5cnn(C)c5)cc4c3F)n2n1` [Example 21-(R), (R,E)-1-(3-(1-(5,7-difluoro-3-(1-methyl-1H-pyrazol-4-yl)quinolin-6-yl)ethyl)-[1,2,4]triazolo[4,3-b]pyridazin-6-yl)ethanone oxime] here?
Its IC50 is 7 µM.

And the IC50 (GTL16 cells)?
Its IC50 is 0.03 µM.

And the IC50 [1]?
Its IC50 is 0.047 µM.

`CO/N=C(\C)c1ccc2nnc([C@@H](C)c3ccc4ncc(-c5cnn(C)c5)cc4c3)n2n1` [Example 3-(S)] was tested. Which IC50 (human platelet PDE3) did it give?
The IC50 was 2 µM.

What about the IC50 (GTL16 cells) of the same compound?
The IC50 was 0.001 µM.

What about the IC50 [1] of the same compound?
Its IC50 is 0.005 µM.

With `C/C(=N\O)c1ccc2nnc([C@@H](C)c3c(F)cc4ncc(-c5cnn(C)c5)cc4c3F)n2n1` [Example 21-(S), (S,E)-1-(3-(1-(5,7-difluoro-3-(1-methyl-1H-pyrazol-4-yl)quinolin-6-yl)ethyl)-[1,2,4]triazolo[4,3-b]pyridazin-6-yl)ethanone oxime] as the compound, how does the IC50 (human platelet PDE3) read?
Its IC50 is 4 µM.

What about the IC50 (GTL16 cells) of the same compound?
The IC50 was 0.007 µM.

And the IC50 [1]?
The IC50 was 0.003 µM.

For `C/C(=N\OCC1CC1)c1ccc2nnc([C@H](C)c3ccc4ncc(-c5cnn(C)c5)cc4c3)n2n1` [Example 4-(R)], which IC50 (human platelet PDE3) is on record?
Its IC50 is 10 µM.

What about the IC50 (GTL16 cells) of the same compound?
Its IC50 is 0.099 µM.

And the IC50 [1]?
The IC50 was 0.144 µM.

What does the source list for `C/C(=N\OCC1CC1)c1ccc2nnc([C@@H](C)c3ccc4ncc(-c5cnn(C)c5)cc4c3)n2n1` [Example 4-(S)]?
IC50 (human platelet PDE3): 1.2 µM; IC50 (GTL16 cells): 0.009 µM; IC50 [1]: 0.023 µM

How did the IC50 (human platelet PDE3) turn out when `C/C(=N\O)c1ccc2nnc(Cc3c(F)cc4ncc(C5CCCCC5)cc4c3F)n2n1` [Example 26, (E)-1-(3-((3-Cyclohexyl-5,7-difluoroquinolin-6-yl)methyl)-[1,2,4]triazolo[4,3-b]pyridazin-6-yl)-ethanone oxime] was run?
Its IC50 is > 30 µM.

And the IC50 (GTL16 cells)?
The IC50 was 0.093 µM.

What about the IC50 [1] of the same compound?
Its IC50 is 0.015 µM.

For `C/C(=N\O)c1ccc2nnc(Sc3ccc4ncc(NC5CCOCC5)cc4c3)n2n1` [Example 30, (E)-1-(3-((3-((Tetrahydro-2H-pyran-4-yl)amino)quinolin-6-yl)sulfanyl)-[1,2,4]triazolo[4,3-b]pyridazin-6-yl)-ethanone oxime], which IC50 (human platelet PDE3) is on record?
The IC50 was 17 µM.

And the IC50 (GTL16 cells)?
The IC50 was 0.001 µM.

What about the IC50 [1] of the same compound?
The IC50 was 0.0009 µM.

Which results are given for `C/C(=N\O)c1ccc2nnc(Cc3ccc4ncc(N5CCN(C)CC5)cc4c3)n2n1` [Example 14, (E)-1-(3-((3-(4-Methylpiperazin-1-yl)quinolin-6-yl)methyl)-[1,2,4]triazolo[4,3-b]pyridazin-6-yl)ethanone oxime]?
IC50 (human platelet PDE3): 25 µM; IC50 (GTL16 cells): 0.002 µM; IC50 [1]: 0.003 µM

For `C/C(=N\O)c1ccc2nnc(Sc3ccc4ncc(N5CCC(O)CC5)cc4c3)n2n1` [Example 29, (E)-1-(3-((3-(4-Hydroxypiperidin-1-yl)quinolin-6-yl)sulfanyl)-[1,2,4]triazolo[4,3-b]pyridazin-6-yl)-ethanone oxime], which IC50 (human platelet PDE3) is on record?
The IC50 was > 30 µM.

And the IC50 (GTL16 cells)?
Its IC50 is 0.001 µM.

And the IC50 [1]?
Its IC50 is 0.0007 µM.

`C/C(=N\O)c1ccc2nnc(Cc3c(F)cc4ncc(N5CCOCC5)cc4c3F)n2n1` [Example 11, (E)-1-[3-(5,7-Difluoro-3-morpholin-4-yl-quinolin-6-ylmethyl)-[1,2,4]triazolo[4,3-b]pyridazin-6-yl]-ethanone oxime] was tested. Which IC50 (human platelet PDE3) did it give?
The IC50 was > 30 µM.

What about the IC50 (GTL16 cells) of the same compound?
The IC50 was 0.006 µM.

What about the IC50 [1] of the same compound?
Its IC50 is 0.001 µM.

`C/C(=N\O)c1ccc2nnc(Cc3ccc4ncc(N5CCOCC5)cc4c3)n2n1` [Example 13, (E)-1-(3-((3-Morpholin-4-yl-quinolin-6-yl)methyl)-[1,2,4]triazolo[4,3-b]pyridazin-6-yl)ethanone oxime] was tested. Which IC50 (human platelet PDE3) did it give?
Its IC50 is 14 µM.

And the IC50 (GTL16 cells)?
The IC50 was 0.01 µM.

What about the IC50 [1] of the same compound?
The IC50 was 0.002 µM.

Which IC50 (human platelet PDE3) does the source give for `CCN(CC)Cc1cnc2ccc(Sc3nnc4ccc(/C(C)=N/O)nn34)cc2c1` [Example 32, (E)-1-(3-((3-((diethylamino)methyl)quinolin-6-yl)sulfanyl)-[1,2,4]triazolo[4,3-b]pyridazin-6-yl)ethanone oxime] here?
The IC50 was > 30 µM.

What about the IC50 (GTL16 cells) of the same compound?
Its IC50 is 0.256 µM.

And the IC50 [1]?
Its IC50 is 0.004 µM.

`CO/N=C(\C)c1ccc2nnc([C@H](C)c3ccc4ncc(-c5cnn(C)c5)cc4c3)n2n1` [Example 3-(R)] was tested. Which IC50 (human platelet PDE3) did it give?
The IC50 was 11 µM.

What about the IC50 (GTL16 cells) of the same compound?
The IC50 was 0.027 µM.

And the IC50 [1]?
Its IC50 is 0.026 µM.

Which IC50 (human platelet PDE3) does the source give for `C/C(=N\O)c1ccc2nnc(Cc3ccc4ncc(-c5cnn(C)c5)cc4c3)n2n1` [Example 12, (E)-1-(3-((3-(1-Methyl-1H-pyrazol-4-yl)quinolin-6-yl)methyl)-[1,2,4]triazolo[4,3-b]pyridazin-6-yl)ethanone oxime] here?
Its IC50 is 9 µM.

And the IC50 (GTL16 cells)?
The IC50 was 0.001 µM.

And the IC50 [1]?
Its IC50 is 0.0005 µM.
